Data taken from US10562869B2, “Oxadiazole compounds” (REMYND NV, priority 2014, dated 2020).
pEC50: −log10 of the molar value.

Tested on: M17_3TAU(P301L) cells
Assay: Retinoic acid-induced cytotoxicity (LDH) in TAU-P301L expressing M17_3TAU(P301L) neuroblastoma cells
Assay type: cell-based
Settings: Homo sapiens, Neuroblastoma cell, 168 h; toxicity inhibition (LDH) in M17_3TAU(P301L) cells challenged with retinoic acid, 7 days
From the text: A TAU expression plasmid was constructed by sub-cloning the cDNA encoding for human TAU-P301L protein, wherein proline at position 301 was substituted by a leucine residue, into mammalian expression vector pcDNA3.1 resulting in the plasmid pcDNA3.1-TAUP301L. Plasmid pcDNA3.1-TAU P301L was transfected into human neuroblastoma cells (BE-M17; ATCC No. CRL-2267™) using lipofectamine reagent and subsequently, independent clonal cell lines with the plasmids stably integrated into the genome were selected by antibiotic resistance selection (Geneticin (G418)), resulting in cell line M17_3TAUP301L. Expression of the TAUP301L gene in the M17_3TAUP301L cells was confirmed by Western blot analysis.
M17_3TAU(P301L) cells were treated chronically with retinoic acid (RA) in low serum conditions to induce Alzheimer's disease-like intracellular signaling deregulation leading to increased TAU levels and subsequent cell death. Cytotoxicity of cells was measured by quantification of lactate dehydrogenase (LDH) levels. In dead cells LDH leaked out of the cells into the medium due to a loss of plasma-membrane integrity.
3 days preceding the experiment, a pre-culture of M17_3TAU(P301L) cells was prepared, starting from a stock culture, at a density of 50.000-100.000 cells/cm^2 in culture medium (Optimem Reduced Serum with phenol red (Invitrogen, Cat. 31985-047)) supplemented with 10% fetal calf serum (FCS), 1 mM sodium pyruvate, 1×non-essential amino acids (NEAA), 500 μg/ml G418 and 0.5×(ABAM). At the day of the experiment these precultures were diluted to ˜0.1·10^6 cells/ml in detection medium (Optimem Reduced Serum without phenol red (Gibco, Cat.11058-021) supplemented with 1% fetal calf serum (FCS), 1 mM sodium pyruvate, 1×non-essential amino acids (NEAA), 500 μg/ml G418 and 0.5×ABAM) and 60 μL of this suspension was dispensed per well into a 96-well microtiter plate. After 3 hours of incubation at 37° C./5% CO2 an equal volume of detection medium (without FCS) containing 3.75 μM RA was added and subsequently incubated for 7 days at 37° C./5% CO2. Then LDH activity was determined using the Promega Cytotox 96 Non-Radioactive cytotoxicity assay (Cat. G1780), according to the manufacturer's instructions. Cytotoxicity was defined as the ratio of LDH relative the total LDH in the cells and supernatant.
The assay described above using the M17_3TAU(P301L) cell line allowed to screen compounds for their ability to decrease cytotoxicity in RA-challenged cells. Compounds of the invention were tested for their ability to decrease toxicity at different concentrations, ranging from low non-effective concentrations to high potent concentrations. Afterwards, the dose-dependent inhibition curve was used to calculate their EC50. A compound was considered to be active in this test when it inhibited toxicity by more than 20% relative to untreated M17_3TAU(P301L) cells at a concentration of 10 μM or lower.

| Compound | pEC50 |
| --- | --- |
| COc1cc(CCN2CCN(c3nc(-c4cccc(Cl)c4)no3)CC2)ccn1 [Cmpd025, 3-(3-Chlorophenyl)-5-(4-(2-(2-methoxypyridin-4-yl)ethyl)piperazin-1-yl)-1,2,4-oxadiazole] | 7.85 |
| Cc1ccccc1CN1CCN(c2nc(-c3cccc(Cl)c3)no2)CC1 [Cmpd026, 3-(3-Chlorophenyl)-5-(4-(2-methylbenzyl)piperazin-1-yl)-1,2,4-oxadiazole] | 7.06 |
| Clc1cccc(-c2noc(N3CCN(Cc4ccccc4Cl)CC3)n2)c1 [Cmpd027, 5-(4-(2-Chlorobenzyl)piperazin-1-yl)-3-(3-chlorophenyl)-1,2,4-oxadiazole] | 7.13 |
| N#Cc1ccccc1CN1CCN(c2nc(-c3cccc(Cl)c3)no2)CC1 [Cmpd028, 2-((4-(3-(3-Chlorophenyl)-1,2,4-oxadiazol-5-yl)piperazin-1-yl)methyl)benzonitrile] | 7.32 |
| Fc1cccc(-c2noc(N3CCN(Cc4ccccc4Cl)CC3)n2)c1 [Cmpd029, 5-(4-(2-Chlorobenzyl)piperazin-1-yl)-3-(3-fluorophenyl)-1,2,4-oxadiazole] | 7.01 |
| Cc1ccc(CN2CCN(c3nc(-c4cccc(F)c4)no3)CC2)cc1 [Cmpd030, 3-(3-Fluorophenyl)-5-(4-(4-methylbenzyl)piperazin-1-yl)-1,2,4-oxadiazole] | 7.89 |
| Fc1cccc(-c2noc(N3CCN(CCc4ccc(Cl)cc4)CC3)n2)c1 [Cmpd031, 5-(4-(4-Chlorophenethyl)piperazin-1-yl)-3-(3-fluorophenyl)-1,2,4-oxadiazole] | 7.51 |
| COc1cc(CCN2CCN(c3nc(-c4cccc(F)c4)no3)CC2)ccn1 [Cmpd032, 3-(3-Fluorophenyl)-5-(4-(2-(2-methoxypyridin-4-yl)ethyl)piperazin-1-yl)-1,2,4-oxadiazole] | 8.10 |
| CC(C)CCN1CCN(c2nc(-c3cccc(F)c3)no2)CC1 [Cmpd034, 3-(3-Fluorophenyl)-5-(4-isopentylpiperazin-1-yl)-1,2,4-oxadiazole] | 8.70 |
| Fc1ccc(-c2noc(N3CCN(Cc4ccccc4Cl)CC3)n2)cc1F [Cmpd035, 5-(4-(2-Chlorobenzyl)piperazin-1-yl)-3-(3,4-difluorophenyl)-1,2,4-oxadiazole] | 7.62 |
| Fc1ccc(-c2noc(N3CCN(CCc4ccc(Cl)cc4)CC3)n2)cc1F [Cmpd036, 1-[2-(4-Chloro-phenyl)-ethyl]-4-[3-(3,4-difluoro-phenyl)-[1,2,4]oxadiazol-5-yl]-piperazine] | 7.66 |
| c1ccc(Cc2noc(N3CCN(Cc4ccc5c(c4)OCO5)CC3)n2)cc1 [Cmpd040, 1-Benzo[1,3]dioxol-5-ylmethyl-4-(3-benzyl-[1,2,4]oxadiazol-5-yl)-piperazine] | 7.19 |
| Cc1ccccc1CN1CCN(c2nc(Cc3ccccc3)no2)CC1 [Cmpd041, 1-(3-Benzyl-[1,2,4]oxadiazol-5-yl)-4-(2-methylbenzyl)-piperazine] | 7.26 |
| COc1cccc(CCN2CCN(c3nc(Cc4ccccc4)no3)CC2)c1 [Cmpd042, 1-(3-Benzyl-[1,2,4]oxadiazol-5-yl)-4-[2-(3-methoxy-phenyl)-ethyl]-piperazine] | 8.52 |
| CCC(c1ccccc1)c1noc(N2CCN(Cc3ccc4c(c3)OCO4)CC2)n1 (stereo not drawn) [Cmpd047, 5-(4-(Benzo[d][1,3]dioxol-5-ylmethyl)piperazin-1-yl)-3-(1-phenylpropyl)-1,2,4-oxadiazole] | 7.20 |
| CCC(c1ccccc1)c1noc(N2CCN(CCc3cccc(OC)c3)CC2)n1 (stereo not drawn) [Cmpd049, 5-(4-(3-Methoxyphenethyl)piperazin-1-yl)-3-(1-phenylpropyl)-1,2,4-oxadiazole] | 8.00 |
| Clc1ccc(Cc2noc(N3CCN(Cc4ccc5c(c4)OCO5)CC3)n2)cc1 [Cmpd055, 1-Benzo[1,3]dioxol-5-ylmethyl-4-[3-(4-chloro-benzyl)-[1,2,4]oxadiazol-5-yl]-piperazine] | 6.34 |

| Compound | pEC50 |
| --- | --- |
| COc1cccc(CCN2CCN(c3nc(Cc4ccc(Cl)cc4)no3)CC2)c1 [Cmpd056, 1-[3-(4-Chloro-benzyl)-[1,2,4]oxadiazol-5-yl]-4-[2-(3-methoxy-phenyl)-ethyl]-piperazine] | 7.12 |
| Cc1ccccc1CN1CCN(c2nc(Cc3ccc(Cl)cc3)no2)CC1 [Cmpd058, 1-[3-(4-Chloro-benzyl)-[1,2,4]oxadiazol-5-yl]-4-(2-methyl-benzyl)-piperazine] | 6.75 |
| Clc1ccc(CCN2CCN(c3nc(Cc4ccc(Cl)cc4)no3)CC2)cc1 [Cmpd059, 1-[3-(4-Chloro-benzyl)-[1,2,4]oxadiazol-5-yl]-4-[2-(4-chloro-phenyl)-ethyl]-piperazine] | 6.66 |
| COc1ccc(CCN2CCN(c3nc(Cc4ccc(Cl)cc4)no3)CC2)cn1 [Cmpd060, 1-[3-(4-Chloro-benzyl)-[1,2,4]oxadiazol-5-yl]-4-[2-(6-methoxy-pyridin-3-yl)-ethyl]-piperazine] | 7.13 |
| Fc1ccccc1CN1CCN(c2nc(Cc3ccc(Cl)cc3)no2)CC1 [Cmpd061, 3-(4-Chlorobenzyl)-5-(4-(2-fluorobenzyl)piperazin-1-yl)-1,2,4-oxadiazole] | 6.16 |
| Clc1ccc(Cc2noc(N3CCN(Cc4ccccc4Cl)CC3)n2)cc1 [Cmpd062, 1-(2-Chloro-benzyl)-4-[3-(4-chloro-benzyl)-[1,2,4]oxadiazol-5-yl]-piperazine] | 8.70 |
| Cc1ccc(CN2CCN(c3nc(Cc4ccc(Cl)cc4)no3)CC2)cc1 [Cmpd063, 1-[3-(4-Chloro-benzyl)-[1,2,4]oxadiazol-5-yl]-4-(4-methyl-benzyl)-piperazine] | 6.76 |
| N#CCCCN1CCN(c2nc(Cc3ccc(Cl)cc3)no2)CC1 [Cmpd064, 4-{4-[3-(4-Chloro-benzyl)-[1,2,4]oxadiazol-5-yl]-piperazin-1-yl}-butyronitrile] | 7.27 |
| CCOCCN1CCN(c2nc(Cc3ccc(Cl)cc3)no2)CC1 [Cmpd065, 1-[3-(4-Chloro-benzyl)-[1,2,4]oxadiazol-5-yl]-4-(2-ethoxy-ethyl)-piperazine] | 6.12 |
| CCCN1CCN(c2nc(Cc3ccc(Cl)cc3)no2)CC1 [Cmpd066, 1-[3-(4-Chloro-benzyl)-[1,2,4]oxadiazol-5-yl]-4-propyl-piperazine] | 6.84 |
| CC(C)CCN1CCN(c2nc(Cc3ccc(Cl)cc3)no2)CC1 [Cmpd067, 3-(4-Chlorobenzyl)-5-(4-isopentylpiperazin-1-yl)-1,2,4-oxadiazole] | 7.66 |
| FC(F)(F)CCCN1CCN(c2nc(Cc3ccc(Cl)cc3)no2)CC1 [Cmpd068, 1-[3-(4-Chloro-benzyl)-[1,2,4]oxadiazol-5-yl]-4-(4,4,4-trifluoro-butyl)-piperazine] | 6.82 |
| Clc1ccc(Cc2noc(N3CCN(CC4CCOCC4)CC3)n2)cc1 [Cmpd069, 3-(4-Chlorobenzyl)-5-(4-((tetrahydro-2H-pyran-4-yl)methyl)piperazin-1-yl)-1,2,4-oxadiazole] | 6.79 |
| CC(C)N1CCN(c2nc(Cc3ccc(Cl)cc3)no2)CC1 [Cmpd071, 3-(4-Chlorobenzyl)-5-(4-isopropylpiperazin-1-yl)-1,2,4-oxadiazole] | 6.88 |
| Cc1ccccc1CN1CCN(c2nc(Cc3cccc(Cl)c3)no2)CC1 [Cmpd075, 1-[3-(3-Chloro-benzyl)-[1,2,4]oxadiazol-5-yl]-4-(2-methyl-benzyl)-piperazine] | 6.62 |
| COc1cccc(CCN2CCN(c3nc(Cc4cccc(Cl)c4)no3)CC2)c1 [Cmpd076, 1-[3-(3-Chloro-benzyl)-[1,2,4]oxadiazol-5-yl]-4-[2-(3-methoxy-phenyl)-ethyl]-piperazine] | 8.22 |
